Reference: ChEMBL document CHEMBL5338745, “Factor XIa Inhibitors in Anticoagulation Therapy: Recent Advances and Perspectives” (J Med Chem, 2023)
pIC50: −log10 of the molar value.

Experiments:
Prothrombin = Prothrombin (Homo sapiens, UniProt P00734); test: Inhibition of human thrombin
Trypsin = Trypsin (Homo sapiens, UniProt P07477+P07478+P35030); test: Inhibition of human trypsin; format: protein assay
Coagulation factor XII = target: T1, Coagulation factor XII (Homo sapiens, UniProt P00748); test: Inhibition of human FXIIa
T1 sequence (P00748 whole entry): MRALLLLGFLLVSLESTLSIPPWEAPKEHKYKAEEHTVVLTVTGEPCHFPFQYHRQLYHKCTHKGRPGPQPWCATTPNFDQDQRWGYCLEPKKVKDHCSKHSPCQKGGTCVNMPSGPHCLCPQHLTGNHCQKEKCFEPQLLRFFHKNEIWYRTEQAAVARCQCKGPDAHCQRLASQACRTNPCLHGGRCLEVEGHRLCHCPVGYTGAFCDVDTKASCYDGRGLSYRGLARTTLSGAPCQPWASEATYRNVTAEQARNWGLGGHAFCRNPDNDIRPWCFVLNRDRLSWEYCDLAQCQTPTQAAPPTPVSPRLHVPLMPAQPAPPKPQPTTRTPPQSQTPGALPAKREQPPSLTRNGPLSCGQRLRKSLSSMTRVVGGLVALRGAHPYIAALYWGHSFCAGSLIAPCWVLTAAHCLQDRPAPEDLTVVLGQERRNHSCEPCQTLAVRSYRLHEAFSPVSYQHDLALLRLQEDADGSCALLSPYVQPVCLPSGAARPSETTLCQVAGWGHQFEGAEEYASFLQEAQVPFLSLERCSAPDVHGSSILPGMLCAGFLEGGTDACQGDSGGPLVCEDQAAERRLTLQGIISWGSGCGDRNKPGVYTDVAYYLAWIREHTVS

Coagulation factor XI = Coagulation factor XI (Homo sapiens, UniProt P03951); test: Inhibition of FXIa (unknown origin)
Chymotrypsin = Chymotrypsin (Homo sapiens, UniProt Q99895+P17538+P40313+Q6GPI1); test: Inhibition of human chymotrypsin; format: protein assay
Coagulation factor VII = target: T2, Coagulation factor VII (Homo sapiens, UniProt P08709); test: Inhibition of human FVIIa
T2 sequence (P08709 whole entry): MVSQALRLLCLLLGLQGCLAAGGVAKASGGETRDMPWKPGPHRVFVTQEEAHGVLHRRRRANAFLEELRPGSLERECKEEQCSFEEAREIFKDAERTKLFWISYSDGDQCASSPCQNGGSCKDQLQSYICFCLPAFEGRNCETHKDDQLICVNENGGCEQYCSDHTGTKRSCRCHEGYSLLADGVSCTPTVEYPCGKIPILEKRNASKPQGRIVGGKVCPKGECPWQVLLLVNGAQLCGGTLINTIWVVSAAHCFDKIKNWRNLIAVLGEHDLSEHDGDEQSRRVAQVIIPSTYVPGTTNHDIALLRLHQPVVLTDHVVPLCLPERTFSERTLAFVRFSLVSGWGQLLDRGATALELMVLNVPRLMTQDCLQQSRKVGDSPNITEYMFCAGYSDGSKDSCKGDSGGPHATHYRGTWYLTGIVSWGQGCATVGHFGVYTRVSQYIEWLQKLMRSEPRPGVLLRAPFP

Coagulation factor X = Coagulation factor X (Homo sapiens, UniProt P00742); test: Inhibition of human FXa
Plasminogen = Plasminogen (Homo sapiens, UniProt P00747); test: Inhibition of human plasmin
Plasminogen, sequence (P00747 97-580 limits assumed): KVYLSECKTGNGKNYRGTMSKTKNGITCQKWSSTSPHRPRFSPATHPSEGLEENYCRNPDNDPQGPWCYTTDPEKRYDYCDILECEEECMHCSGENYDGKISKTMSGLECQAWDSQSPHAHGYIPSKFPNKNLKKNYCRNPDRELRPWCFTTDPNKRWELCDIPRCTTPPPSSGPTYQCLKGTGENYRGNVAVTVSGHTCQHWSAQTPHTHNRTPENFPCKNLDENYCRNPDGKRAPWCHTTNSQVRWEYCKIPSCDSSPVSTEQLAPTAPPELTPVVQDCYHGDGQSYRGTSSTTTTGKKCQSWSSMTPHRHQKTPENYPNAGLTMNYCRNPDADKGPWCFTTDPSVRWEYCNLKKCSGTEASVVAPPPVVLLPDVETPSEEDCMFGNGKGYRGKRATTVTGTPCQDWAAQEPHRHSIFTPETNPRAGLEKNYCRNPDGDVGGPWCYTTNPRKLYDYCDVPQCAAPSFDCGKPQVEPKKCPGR
Plasminogen, sequence (P00747 581-810 limits assumed): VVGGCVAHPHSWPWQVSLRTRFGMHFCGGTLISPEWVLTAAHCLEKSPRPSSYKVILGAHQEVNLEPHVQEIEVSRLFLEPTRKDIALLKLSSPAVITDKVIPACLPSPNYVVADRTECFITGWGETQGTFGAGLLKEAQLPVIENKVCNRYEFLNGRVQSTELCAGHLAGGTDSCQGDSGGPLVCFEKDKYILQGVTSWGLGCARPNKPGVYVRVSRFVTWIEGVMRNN

Coagulation factor X, sequence (P00742 41-179 limits assumed): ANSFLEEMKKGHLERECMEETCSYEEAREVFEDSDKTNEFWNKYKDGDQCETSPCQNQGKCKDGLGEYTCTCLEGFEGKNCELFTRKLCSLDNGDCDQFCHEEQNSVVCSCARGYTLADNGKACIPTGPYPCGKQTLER
Coagulation factor X, sequence (P00742 235-488 limits assumed): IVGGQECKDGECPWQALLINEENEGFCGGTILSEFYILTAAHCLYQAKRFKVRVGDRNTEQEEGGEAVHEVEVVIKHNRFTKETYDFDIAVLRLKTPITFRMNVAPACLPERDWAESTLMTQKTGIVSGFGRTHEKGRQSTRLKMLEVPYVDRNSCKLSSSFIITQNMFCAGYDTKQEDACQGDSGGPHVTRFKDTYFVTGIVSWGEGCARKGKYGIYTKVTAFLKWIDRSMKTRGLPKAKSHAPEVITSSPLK
Coagulation factor XI, sequence (P03951 19-387 limits assumed): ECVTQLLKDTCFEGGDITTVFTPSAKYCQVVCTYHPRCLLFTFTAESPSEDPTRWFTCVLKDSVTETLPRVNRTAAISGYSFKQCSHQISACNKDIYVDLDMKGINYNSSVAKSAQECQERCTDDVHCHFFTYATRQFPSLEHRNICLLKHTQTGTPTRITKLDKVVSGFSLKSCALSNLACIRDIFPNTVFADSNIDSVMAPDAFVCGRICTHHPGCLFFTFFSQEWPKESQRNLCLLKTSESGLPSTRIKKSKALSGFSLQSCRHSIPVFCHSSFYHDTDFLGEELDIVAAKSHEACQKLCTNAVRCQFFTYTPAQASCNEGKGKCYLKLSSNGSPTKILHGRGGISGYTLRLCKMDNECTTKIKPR
Coagulation factor XI, sequence (P03951 388-625 limits assumed): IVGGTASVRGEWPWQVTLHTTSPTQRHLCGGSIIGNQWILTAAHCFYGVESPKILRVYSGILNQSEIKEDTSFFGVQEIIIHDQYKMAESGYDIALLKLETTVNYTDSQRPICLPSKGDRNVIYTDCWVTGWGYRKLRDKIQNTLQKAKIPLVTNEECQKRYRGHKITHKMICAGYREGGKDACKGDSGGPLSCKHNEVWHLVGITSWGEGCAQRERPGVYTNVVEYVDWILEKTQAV

pIC50 (Prothrombin): < 4.40
IC50 (Trypsin): > 40 µM
pIC50 (Coagulation factor XII): < 4.40
pIC50 (Coagulation factor XI): 6.55
IC50 (Chymotrypsin): > 40 µM
pIC50 (Coagulation factor VII): < 4.40
pIC50 (Coagulation factor X): < 4.40
pIC50 (Plasminogen): < 4.40
Structure (SMILES): O=C(O[C@H]1[C@H](OC(=O)c2cc(OS(=O)(=O)[O-])cc(OS(=O)(=O)[O-])c2)[C@H](OC(=O)c2cc(OS(=O)(=O)[O-])cc(OS(=O)(=O)[O-])c2)[C@@H](OC(=O)c2cc(OS(=O)(=O)[O-])cc(OS(=O)(=O)[O-])c2)[C@H](OC(=O)c2cc(OS(=O)(=O)[O-])cc(OS(=O)(=O)[O-])c2)[C@H]1OC(=O)c1cc(OS(=O)(=O)[O-])cc(OS(=O)(=O)[O-])c1)c1cc(OS(=O)(=O)[O-])cc(OS(=O)(=O)[O-])c1.[Na+].[Na+].[Na+].[Na+].[Na+].[Na+].[Na+].[Na+].[Na+].[Na+].[Na+].[Na+]
